Test system: dendritic cells
Assay: IL-10/IL-12 secretion of stimulated dendritic cells (ELISA / ELISPOT) compared with the conventional Signal 3 Assay
Type: cell-based, human
Conditions: especially immature DCs (iDCs) and Jonuleit maturated DCs; FIG. 4 ELISA, FIG. 5 ELISPOT
Procedure: Monocytes are isolated with adherent isolation followed by dendritic cell generation for 3 days using IL-4 and GMSCF. Afterwards dendritic cells were maturated with MDG cocktail and IL-4 and GMCSF for 24 h. In case of Jonuleit cocktails cells were incubated for 6 days using IL-4 and GMSCF. Then cells where incubated with the Jonuleit cocktail (and IL-4 and GMCSF) for 24 h. For all assays, frozen dendritic cells were used thawed the day before the assay and incubated in DC medium until assay start. Stimulation is carried out for 24 h in a 96 well plate. Therefore, 11,000 dendritic cells were seeded per well. 1.1 μl CD40L in 110 μl DC Medium (VLE RPMI 1640 with 1.5% human serum) 1 μg/ml LPS and R848 were added.
Elisa assay was performed according to the protocols of the human IL-10, IL12p70 respectively, DuoSet ELISA-Kit (R&D Systems, Inc, Minneapolis, USA).
The IL-10/IL-12 Elispot assay was carried out according to the protocol of the Human IL-10/IL-12 Double-Color ELISPOT kit of (C.T.L. Cellular technology Limited, Cleaveland, USA)

## CCOCc1nc2c(N)nc3ccccc3c2n1CC(C)(C)O [R848, 4-amino-2-ethoxymethyl-α,α-dimethyl-1H-imidazol[4,5-c]quinoline-1-ethanol]
  IL-10 secretion with R848 as costimulatory reagent added to CD40L: necessary as a costimulatory reagent for optimal IL-10 secretion

Source: patent US20210063413A1, “DENDRITIC CELL POTENCY ASSAY” (MEDIGENE IMMUNOTHERAPIES GMBH, priority 2017, published 2021)
